Columns and labels:
primary CLL cells = conditions: earlier work of the group; cited from earlier work
[1] = test system: primary myeloma cells derived from bone marrow from patients with multiple myeloma; experiment: Viability of myeloma primary cells from bone marrow; format: cell-based, human; conditions: incubated three days; preliminary data
Description: Bone marrow samples from patients with myeloma were taken after informed consent, single cell suspensions generated and cells ficolled. Cells were incubated with or without EA for three days and measured for viability.
(§1) • Figure 1. […] Data are shown as mean ± SD. • Figure 2. […] Data are shown as mean ± SD. • Figure 3. […] (A) Flow cytometric results. […] Finally, ECL reagent was utilized for detection. • Figure 4C. […] Finally, ECL reagent was utilized for detection. • Figure 5. Effect of EA on viability of myeloma primary cells. […] Results represent data from two separate experiments. Data are shown as mean. • Figure 6. […] (A) Tumor growth and (B) overall survival were measured. Six animals were assayed per group.
Bone marrow samples from patients with myeloma were taken after informed consent, single cell suspensions generated and cells ficolled. Cells were incubated with or without CIC for three days and measured for viability.
Bone marrow samples from patients with myeloma were taken after informed consent, single cell suspensions generated and cells ficolled. Cells were incubated with or without GF for three days and measured for viability.

[2] = test system: lymphoma and myeloma cell lines; experiment: Titration of the optimal concentration; format: cell-based, human; conditions: without significantly deteriorating viability of normal PBMCs, data not shown
Description: (§2) As a first step, we determined the optimal concentration of EA in various lymphoma and myeloma cell lines. Subsequently, we determined the optimal concentration of EA in PBMCs derived from healthy individuals in order to check for toxicity. […] The effect of DMSO as a toxic solvent was only observed in the myeloma cell line OPM-2 (Figure 1C). As a control, peripheral blood mononuclear cells (PBMCs) were investigated by FACS analysis. A toxic effect affecting the cells induced a shift from viable, DiOC6-positive cells to apoptotic, DiOC6-negative cells.
(§3) Experiments were performed as reported recently.
as §2, with “CIC” for “EA”, “(Fig. 7C).” for “(Figure 1C).”

SU-DHL 4 = experiment: Cell viability by DiOC6 staining, flow cytometry; format: cell-based; conditions: Homo sapiens
Description: as §3
(§4) PBL derived from healthy individuals were used as controls. […] ND, not done.

OCI-Ly8 LAM53 = experiment: Cell viability by DiOC6 staining, flow cytometry; format: cell-based; conditions: Homo sapiens
Description: as §3, §4

RPMI 8226 = experiment: Cell viability by DiOC6 staining, flow cytometry; format: cell-based; conditions: Homo sapiens, 72 h, 1x10^5 cells cultured three days, various concentrations
Description: as §3, §4

U266 = experiment: Cell viability by DiOC6 staining, flow cytometry; format: cell-based; conditions: Homo sapiens, U-266, 72 h, 1x10^5 cells cultured three days, various concentrations
Description: as §3, §4

Raji = experiment: Cell viability by DiOC6 staining, flow cytometry; format: cell-based; conditions: Homo sapiens
Description: as §3, §4

beta catenin = experiment: Western blot, Wnt/beta catenin pathway in lymphoma cells; format: cell-based, human
Description: (§5) Western blot was performed as described recently^16.
as §1
(§6) Western blot was performed as described recently.
(§7) • Figure 7. […] Data are shown as mean ± SD. • Figure 8. […] Data are shown as mean ± SD. • Figure 9. Effect of CIC on the Wnt/beta catenin pathway. (A) Flow cytometric results. […] Finally, ECL reagent was utilized for detection. • Figure 10C. […] Finally, ECL reagent was utilized for detection. • Figure 11. […] (A) Tumor growth and (B) overall survival were measured. Six animals were assayed per group. HD CIC.

lymphoma cell lines = experiment: Cell viability by DiOC6 staining in lymphoma cell lines; format: cell-based, human; conditions: result in words
Description: as §3, §4

PBL = experiment: Cell viability by DiOC6 staining, flow cytometry (normal control cells); conditions: Homo sapiens, PBL, 72 h
Description: Peripheral blood mononuclear cells (PBMC) and PBL were isolated from blood samples of healthy volunteers by Ficoll density gradient centrifugation (Lymphoprep, Nycomed, Oslo, Norway).
1x10^5 Cells were cultured in 3 ml Medium in 6-well plates. […] The apoptosis assay was performed with 3'3-dihexyloxacarbocyanine iodide (DiOC6) detecting mitochondrial membrane potential in viable cells, and propidium iodide (PI) which binds to DNA in necrotic cells, measured by a fluorescence-activated cell sorter (FACS).
For FACS analysis, 500µl staining solution containing 80 nM DiOC6 in FACS buffer, consisting of deficient RPMI-medium with 0.5% bovine serum albumin (BSA), was mixed with equal volumes of the cell sample in a glass tube and incubated at 37°C for 15 min. After a washing step with PBS/BSA 1% the cells were re-suspended in 500µl PBS/BSA 1%. After addition of 5µl PI-solution (100µg/ml) the cells were analyzed by FACS. Using this assay, viable cells reveal high fluorescence intensity for DiOC6 and a low expression for PI. In contrary, apoptotic cells show a low expression for DiOC6 and also a low expression for PI (2). Finally, necrotic cells show a low expression for DiOC6 and a high expression for PI.
PBMC and PBL derived from healthy individuals were used as normal controls. 1x10^5 cells were cultured with each compound using various concentrations for three days. Then cell viability was measured by DIOC6 staining by flow cytometry. Results represent data from two to four separate experiments each.
PBMC and PBL derived from healthy individuals were used as normal controls. 1x10^5 cells were cultured with each compound using various concentrations for three days. Then cell viability was measured by DIOC6 staining by flow cytometry. Results represent data from 2 to 4 separate experiments each.
1x10^5 Cells were cultured in 3 ml Medium in 6-well plates. […] The apoptosis assay was performed with 3' 3-dihexyloxacarbocyanine iodide (DiOC6) detecting mitochondrial membrane potential in viable cells, and propidium iodide (PI) which binds to DNA in necrotic cells, measured by a fluorescence-activated cell sorter (FACS).
PBL derived from healthy individuals were used as controls. 1x10^5 cells were cultured with each compound using various concentrations for three days. Then cell viability was measured by DIOC6 staining by flow cytometry and IC 50 rates were determined. Results represent data from 2 to 4 separate experiments each.
PBMC and PBL derived from healthy individuals were used as controls. 1x10^5 cells were cultured with each compound using various concentrations for three days.

OPM-2 myeloma cells = experiment: Cell viability by DiOC6 staining, flow cytometry; format: cell-based, human; conditions: Homo sapiens, 72 h; OPM-2; 1x10^5 cells cultured three days, various concentrations
Description: as §3, §4

[3] = test system: OPM-2, U266 and RPMI 8226 cells; experiment: Cell viability by DiOC6 staining in myeloma cell lines (mean IC50, combinations); format: cell-based, human; conditions: Homo sapiens; mean of the IC50 results in OPM-2, U266 and RPMI 8226 cells
Description: A mean IC50 value in myeloma cells was determined using the mean of the IC50 results determined in OPM-2, U266 and RPMI 8226 cells.
as §1
Experiments were performed as reported recently. […]

β-catenin [4] = experiment: Western blot, β-catenin expression in KMS-18 cells; format: cell-based, human; conditions: KMS-18 cells treated for 24h
Description: as §5, §1, §6, §7

β-catenin [5] = experiment: Western blot, β-catenin expression in RPMI 8226 cells; format: cell-based, human; conditions: RPMI 8226 cells treated for 24h
Description: as §5, §1, §6, §7

For `Cc1cc(C2CCCCC2)n(O)c(=O)c1` [CIC, ciclopirox olamine], the “cell death in primary CLL cells” value (primary CLL cells) is given as “selectively induced cell death”, the “growth of primary myeloma cells” value [1] is given as “inhibits the growth” and the “most effective concentration to initialize cell death” value [2] is given as 30 µM. The IC50 (SU-DHL 4; SU-DHL-4, after 72 h) was 7 µM, the IC50 (OCI-Ly8 LAM53; OCI-Ly8, LAM-53, after 72 h) was 2 µM and the IC50 (RPMI 8226) was 6 µM. For the same compound, the IC50 (U266) was 6 µM, the IC50 (Raji; after 72 h) was 6 µM and the “beta catenin expression in lymphoma cells” value (beta catenin) was “down regulated”. The “viability of lymphoma cell lines in vitro” value (lymphoma cell lines) was “significantly (p<0.05) decreased”, the IC50 (PBL) was 9 µM and the IC50 (OPM-2 myeloma cells) was 5 µM. For the same compound, the IC50 [3] was 30 µM, the β-catenin expression (β-catenin [4]) was “decreased” and the β-catenin expression (β-catenin [5]) was “slightly decreased”.

For `C=C(CC)C(=O)c1ccc(OCC(=O)O)c(Cl)c1Cl` [EA, 2-[2,3-dichloro-4-(2-methylidenebutanoyl)phenoxy] acetic acid], the “cell death in primary CLL cells” value (primary CLL cells) is given as “selectively induced cell death”, the “growth of primary myeloma cells” value [1] is given as “inhibits the growth” and the “most effective concentration to initialize cell death” value [2] is given as 30 µM. The IC50 (SU-DHL 4; 72 h, SU-DHL 4, 1x10^5 cells cultured three days, various concentrations) was 58 µM, the IC50 (OCI-Ly8 LAM53; 72 h, OCI-Ly8 LAM53, 1x10^5 cells cultured three days, various concentrations) was 57 µM and the IC50 (RPMI 8226) was 8 µM. The IC50 (U266) was 60 µM, the IC50 (Raji; 72 h, 1x10^5 cells cultured three days, various concentrations) was 33 µM and the “beta catenin expression in lymphoma cells” value (beta catenin) was “down regulated”. The “viability of lymphoma cell lines in vitro” value (lymphoma cell lines) was “significantly (p<0.05) decreased”, the IC50 (PBL) was 10 µM and the IC50 (OPM-2 myeloma cells) was 22 µM. The IC50 [3] was 30 µM, the β-catenin expression (β-catenin [4]) was “increased” and the β-catenin expression (β-catenin [5]) was “slightly increased”.

Reference: patent publication EP3318253B1, “COMPOSITIONS COMPRISING WNT INHIBITORS FOR TREATING CANCER” (Schmidt-Wolf, Ingo, priority 2010, dated 2012)
